Measurements as given in ChEMBL document CHEMBL4665745, “Bioactive Lignans from Hypoestes aristata” (J Nat Prod, 2020).
Active and inactive are the calls of the source. No cut-off for these calls is given here.

What was measured:
[1] = target: Human immunodeficiency virus type 1 protease (Human immunodeficiency virus 1) (UniProt Q72874); experiment: Inhibition of HIV-1 protease at >100 uM after 1 hr by fluorescence assay; details: dose microM >100, time 1.0 hrs
[2] = target: Human immunodeficiency virus type 1 protease (Human immunodeficiency virus 1) (UniProt Q72874); experiment: Inhibition of HIV-1 protease at <60 uM after 1 hr by fluorescence assay; details: dose microM <60, time 1.0 hrs
[3] = system: MCF7; experiment: Cytotoxicity against human MCF7 cells assessed as reduction in cell viability after 48 hrs; format: functional, cell-based
[4] = system: MCF7; experiment: Cytotoxicity against human MCF7 cells assessed as reduction in cell viability at <90 uM after 48 hrs; format: functional, cell-based; details: dose microM <90, time 48.0 hrs
[5] = system: MDA-MB-231; experiment: Cytotoxicity against human MDA-MB-231 cells assessed as reduction in cell viability after 48 hrs; format: functional, cell-based
[6] = system: MDA-MB-231; experiment: Cytotoxicity against human MDA-MB-231 cells assessed as reduction in cell viability at >90 uM after 48 hrs; format: functional, cell-based; details: dose microM >90, time 48.0 hrs

SMILES | inhibition [1] | inhibition [2] | Activity [3] | Activity [4] | Activity [5] | Activity [6]
O=C1OC[C@H](Cc2ccc3c(c2)OCO3)[C@H]1Cc1ccc2c(c1)OCO2 | Active | Active |  |  |  | 
CC(=O)O[C@H](c1ccc2c(c1)OCO2)[C@H]1COC(=O)[C@@H]1[C@H](O)c1ccc2c(c1)OCO2 | Active |  | Active | inactive | Active | inactive
CC(=O)N[C@H](C(=O)N[C@H](C(=O)N[C@@H](CC(C)C)[C@@H](O)CC(=O)N[C@@H](C)C(=O)N[C@@H](CC(C)C)[C@@H](O)CC(=O)O)C(C)C)C(C)C |  |  |  | inactive |  | inactive
COc1cc([C@H]2OC[C@H]3[C@@H]2CO[C@@H]3c2cc(OC)c(O)c(OC)c2)ccc1O | Active |  |  |  |  | 
CC(=O)O[C@H](c1ccc2c(c1)OCO2)[C@H]1COC(=O)[C@@H]1[C@H](OC(C)=O)c1ccc2c(c1)OCO2 | Active | Active | Active | inactive | Active | inactive
CC(=O)O[C@@H](c1ccc2c(c1)OCO2)[C@H]1COC(O)[C@@H]1[C@@H](OC(C)=O)c1ccc2c(c1)OCO2 (stereo partly specified) | Active |  | Active | inactive | Active | inactive
